How the values were obtained:
EGFR = assay: Disulfide bond-mediated oligomerization, non-reducing immunoblot; format: cell-based; conditions: MDA-MB-468 cells, 24 h, FIG. 1E right
From the text: (§1) The BT20, BT474, BT549, MCF7, MDA-MB-231, MDA-MB-436, MDA-MB-468, HCC1143, HCC1500, HCC1569, HCC1937, HCC1954, Hs578t, and T47D cells lines were purchased from American Type Culture Collection (ATCC) (Manassas, VA). The HCI-001 cell line was derived from an ER-/PR-/HER2- patient-derived xenograft originally isolated from a patient as described previously (DeRose Y S, et al. Nat Med 2011; 17: 1514-1520). The HCI-001/LVM2 model was derived from the HCI-001 cell line by performing two rounds of selection for liver metastasis, as described previously (Wang M, et al. Cell Death Discovery 2019; 5: 153). Cell lines were grown in Dulbecco's Modified Eagle's Medium (GE Healthcare Life Sciences, Logan, UT) containing 10% fetal bovine serum (10% FBS—DMEM) in a humidified incubator with 5% CO2 at 37° C. Cell lysates were prepared as described previously (Law B K, et al. Mol Cell Biol. 2002; 22: 8184-8198). Immunoblot analysis was performed utilizing the following antibodies purchased from Cell Signaling Technology (Beverly, MA) [Akt, #4691; P-Akt[T308], #13038; ATF4, #11815; CHOP, #2895; Cleaved Caspase 8, #9496; DR4, #42533; DR5, #8074; EGFR, #4267; GRP78, #3177; HER3, #4754; PARP, #9532; PDIA1, #3501; XBP1s, #12782], from Santa Cruz Biotechnology (Santa Cruz, CA) [Actin, sc-47778; AGR2/3, sc-376653; AGR3, sc-390940; ERO1-a, sc-100805; and ERp44, sc-393687], or from Rockland Immunochemicals, Inc. (Limerick, PA), Streptavidin-Alkaline Phosphatase conjugated (SA-AP), S000-05.
(§2) To assess protein disulfide bond-mediated oligomerization, cells were treated with DDAs for 24 h in 10% FBS-DMEM. Cells were subsequently scraped directly into the media and pelleted by centrifugation. Cells were extracted directly into boiling 2×-SDS-Sample Buffer containing 100 mM NEM and boiled for 10 min. Samples were sonicated, followed by centrifugation for 20 min at room temperature. Samples were subsequently analyzed by SDS-PAGE and immunoblot.

DR4 = assay: as above; format: cell-based; conditions: MDA-MB-468 cells, 24 h
From the text: as §1, §2

ERAP1 = ERAP1 retention/secretion in MDA-MB-468 cells, immunoblot; format: cell-based; conditions: MDA-MB-468 stable cell lines expressing ERp44, 24 h, FIG. 4E
From the text: as §1, §2

GRP78 = assay: Endoplasmic reticulum stress (ERS) induction, immunoblot; format: cell-based; conditions: MDA-MB-468 cells, 24 h
From the text: as §1, §2

MDA-MB-468 cells = assay: Cell viability (MTT) assay; format: cell-based; conditions: FIG. 1D
Description: MTT (3-(4,5-dimethylthiazol-2-yl)-2,5-diphenyltetrazolium bromide) (Biomatik, Wilmington, DE) assays were performed by plating 7,500 cells/well in 10% FBS/DMEM in a 96-well plate, followed by incubation at 37° C. for 24 h. Cells were then treated with vehicle or increasing concentrations of tcyDTDO, dMtcyDTDO, or dFtcyDTDO and incubated at 37° C. for 72 h. Cell media was subsequently removed from each well and MTT assays were initiated by incubating cells with 0.5 mg/ml MTT in PBS for 3 h, followed by removal of the MTT solution and addition of 100 µL of DMSO to each well for 30 min. Absorbance of the MTT formazan product was subsequently measured at 570 and 690 (reference) nm in a plate reader.

ERp44 [1] = target: T1, ERp44 (Homo sapiens, UniProt Q9BS26); assay: ERp44 disulfide bonding with client proteins, non-reducing immunoblot; format: cell-based; design: endogenous in cells; host or cells: MDA-MB-468; conditions: MDA-MB-468 cells overexpressing wild type ERp44, 7.5 μM, 24 h, FIG. 6B
T1 sequence (Q9BS26 30-406): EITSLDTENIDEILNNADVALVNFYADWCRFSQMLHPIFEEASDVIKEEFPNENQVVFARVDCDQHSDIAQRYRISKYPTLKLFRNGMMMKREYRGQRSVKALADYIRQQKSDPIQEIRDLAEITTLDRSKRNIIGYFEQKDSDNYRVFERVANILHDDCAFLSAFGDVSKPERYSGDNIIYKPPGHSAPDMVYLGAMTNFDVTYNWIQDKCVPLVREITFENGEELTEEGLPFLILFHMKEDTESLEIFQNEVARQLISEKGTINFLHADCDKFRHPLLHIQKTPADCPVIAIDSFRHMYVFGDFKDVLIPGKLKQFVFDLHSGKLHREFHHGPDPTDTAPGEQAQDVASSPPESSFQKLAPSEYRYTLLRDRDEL
Description: as §2

[2] = system: HER2+ BT474 xenograft tumors; assay: BT474 xenograft tumor study, H&E staining of mammary fat pads/tumors; format: in vivo, mice; conditions: 20 mg/kg intraperitoneal, four consecutive days; vehicle tumors showed no necrosis
Description: Breast cancer liver metastasis was initiated in NOD-SCID-gamma (NSG) mice obtained from Jackson Laboratories (Bar Harbor, ME) by injecting 1×10^6 cancer cells into the #4 mammary fat pads as described previously (Wang M, et al. Cell Death Discovery 2019; 5: 153). Mice bearing HCI-001/LVM2 breast tumors were treated once daily for four consecutive days with 20 mg/kg tcyDTDO by oral gavage and livers were collected. Animals bearing HER2+ BT474 tumors were treated with the vehicle or 20 mg/kg dMtcyDTDO or dFtcyDTDO by intraperitoneal injection for four consecutive days. Tissue samples fixed in 4% paraformaldehyde/PBS and paraffin-embedded were sectioned and stained with hematoxylin and eosin (H&E) by the University of Florida Molecular Pathology Core (https://molecular.pathology.ufl.edu/).

DR5 = assay: Disulfide bond-mediated oligomerization and levels, non-reducing immunoblot; format: cell-based; conditions: MDA-MB-468 cells, 24 h
From the text: as §1, §2

ERp44 [3] = target: T2, ERp44 (Homo sapiens, UniProt Q9BS26, S61C); assay: ERp44 disulfide bonding with client proteins, non-reducing immunoblot; format: cell-based; conditions: MDA-MB-468 cells overexpressing ERp44[S61C], 7.5 μM, 24 h, FIG. 6B
T2 construct: endogenous in cells; host or cells: MDA-MB-468
Description: as §2

[4] = compared with tcyDTDO, FIG. 1E left

T2 sequence (Q9BS26 30-406 S61C): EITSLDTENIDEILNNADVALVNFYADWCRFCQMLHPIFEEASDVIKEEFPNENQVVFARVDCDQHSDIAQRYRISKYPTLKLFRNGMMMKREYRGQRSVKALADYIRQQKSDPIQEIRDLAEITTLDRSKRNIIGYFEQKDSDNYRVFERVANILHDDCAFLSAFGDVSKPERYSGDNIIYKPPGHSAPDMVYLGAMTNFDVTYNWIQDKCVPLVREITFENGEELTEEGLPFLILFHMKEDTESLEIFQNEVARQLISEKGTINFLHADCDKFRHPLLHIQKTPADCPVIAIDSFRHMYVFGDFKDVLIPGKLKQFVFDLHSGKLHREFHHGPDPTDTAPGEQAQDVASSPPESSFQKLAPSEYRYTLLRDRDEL

Question: Which “Concentration at which disulfide-mediated oligomerization of EGFR was detected” value (EGFR) does the source give for `O=S1(=O)CC2CC(F)C(F)CC2CS1` (centres unmarked) [dFtcyDTDO, difluoro-tcyDTDO] here?
Answer: 625 nM

Question: What about the “Concentration at which disulfide-mediated oligomerization of DR4 was detected” value (DR4; FIG. 1E right) of the same molecule?
Answer: 625 nM

Question: And the “DR4/5 oligomerization at the same concentration (DR4)” value (DR4; [4])?
Answer: more DR4/5 oligomerization

Question: What about the ERAP1-ERp44 disulfide-bonded dimer (ERAP1) of the same molecule?
Answer: reduced

Question: And the “Concentration at which induction of ERS (GRP78 elevation) was detected” value (GRP78; FIG. 1E right)?
Answer: 625 nM

Question: And the “ERS at the same concentration” value (GRP78; [4])?
Answer: greater ERS

Question: What about the “Potency in cell viability assays relative to tcyDTDO” value (MDA-MB-468 cells) of the same molecule?
Answer: approximately two-fold greater potency than tcyDTDO

Question: What about the “Disulfide bonding of overexpressed ERp44 to client proteins” value (ERp44 [1]) of the same molecule?
Answer: partially blocked

Question: What about the “Tumors in mammary fat pads, H&E histology” value [2] of the same molecule?
Answer: tumors were not observed

Question: What about the “DR5 upregulation in cells overexpressing C58S or S61C ERp44 mutants” value (DR5; 7.5 μM, FIG. 6B) of the same molecule?
Answer: potentiated DR5 upregulation

Question: And the “Concentration at which oligomerization of DR5 was observed” value (DR5; FIG. 1E right)?
Answer: 1.25 µM

Question: And the “DR4/5 oligomerization at the same concentration (DR5)” value (DR5; [4])?
Answer: more DR4/5 oligomerization

Question: What about the “DR5 levels at the same concentration” value (DR5; [4]) of the same molecule?
Answer: higher DR5 levels

Question: What about the “Disruption of S61C ERp44 mutant binding to its clients, versus wild type” value (ERp44 [3]) of the same molecule?
Answer: less sensitive to disruption of binding to its clients

Reference: patent US20240118281A1, “ANTICANCER COMPOUNDS AND USES THEREOF” (University of Florida Research Foundation, Incorporated, priority 2021, published 2024)
